{"source": "patent US20090191160A1", "about": "“Methods of producing pluripotent stem-like cells” (University of Dayton, priority 2007, published 2009)", "type_in_all_cases": "cell-based, mouse", "key": {"skin fibroblast cells": {"system": "skin fibroblast cells", "assay": "Conversion (dedifferentiation) of skin fibroblast cells into stem cell-like cells, phase contrast morphology", "conditions": "for conversion of skin fibroblast cells into stem cell-like cells: Thapsigargin 1 μg/ml added to SR-containing medium; for reprogramming / dedifferentiation of skin fibroblast cells into stem cell-like cells: basic medium with SR or lipid-rich BSA versus basic medium only", "method": "(§1) Mouse embryonic skin fibroblast cells (MEFs) derived form 13.5 day mouse embryos and adult mouse primary dermal fibroblasts derived from adult mouse skin were cultured in DMEM Dulbecco's modified Eagle's medium (DMEM) with 10% Fetal Bovine Serum (FBS) at 37° C., 10% CO2. After the cells were grown to confluence, the cells were trypsinized, then suspended in SR-containing medium or basic medium without serum. About 10^5 mouse skin fibroblast cells were transferred to 3 ml SR-containing medium in a 6 well plate. SR-containing medium contained basic medium that included DMEM/F12 (Invitrogen 11330-032), 1× non-Essential Amino Acids (Invitrogen 11140-050), 1× L-Glutamine (Invitrogen 25030-018), […] β-mercaptoethanol and 20% Knockout Serum Replacer (Invitrogen 10828-028). 4 ng/mL bFGF (R&D System Cat# 233-FB) and Leukemia inhibitory factor Lif (ESGRO®, Chemicon ESG1107) were added to the SR-containing medium to prevent stem-like cells from differentiating.\nConversion of fibroblast cells to induced pluripotent stem-like cells can be achieved by culturing a mouse embryonic skin fibroblast (MEF), mouse adult skin fibroblast (MAF) or human skin fibroblast cell in DMEM media having 10% fetal bovine serum (FBS) until the cells are confluent. Serum-replacement (SR)-containing media and 0.25% trypsin/EDTA are then warmed (e.g., at 37° C. in a water bath). Media is aspirated from the fibroblast cell culture plate, cells are washed with 1×PBS, and trypsinized via addition of 2 mls of trypsin/EDTA for one minute, followed by removal of all the trypsin solution. 2 mls of the SR human ES medium or DMEM/F12 medium is then added to the cells (without FBS), and cells are resuspended in the medium using a 5 ml pipet, pipeting up and down until no large clumps remain. About 10^5 cells/well are then added to a six well plate, with each well containing 3 mls of SR human ES medium. The cells are then mixed in this media. Cells are then placed in a warm incubator (e.g., 37° C. at 5% or 10% CO2). The cells are passaged every 3 days for a total of five or more passages. Ingredients of SR human stem cell culture medium are: 400 ml DMEM/F12 (Invitrogen 11330-032), 5 ml non-Essential Amino Acids (Invitrogen 11140-050), 2.5 ml L-Glutamine (Invitrogen 25030-018), […] β-mercaptoethanol (Sigma 7522, add 3.5 ul) and 100 ml Knockout Serum Replacer (Invitrogen 10828-028). Optionally, 4 ng/mL bFGF (R&D System Cat# 233-FB) is present. To make FGF stock, 1 ml of DMEM/F12 was added to dissolve 1 vial of 10 ug of FGF, with this solution aliquotted into five vials, then stored at −20° C. bFGF needed to be added freshly to the medium every time the method was performed. Lif was also needed for mouse cell cultures. Formulation of the SR component of serum-free medium also contained AgNO3 and other trace elements. For AgNO3-containing media, 1000× AgNO3 was added to the medium to a final concentration of 0.0001 mg/L.\nTo investigate the possibility that serum replacement (SR)-containing medium can promote the reprogramming and dedifferentiation of skin fibroblast cells into pluripotent stem-like cells, mouse skin fibroblast cells were cultured in fibroblast growth medium, and were then transferred by trypsinization to plates holding SR-containing medium. […] Twenty-four hours post-transfer, a majority of cells became small, round, bright-edged granulated cells (FIG. 1a). […]"}, "[1]": {"system": "fibroblast growth factor receptor 3 (FGFR3)", "assay": "Western blotting for FGF Receptor-3 protein in fibroblast cells", "conditions": "Western blot; for FGFR3 expression: Thapsigargin 1 ug/ml, 24 hour timepoint", "source_text": "[…] […] All Images were acquired in the inverted microscope (Nikon TS100) at 10× magnification using the MetaMorph Imaging Software, and the scale bar is 100 μm.\n(§2) (Up-regulation of FGFR3 had been previously shown to play an important role in the reprogramming of primordial germ cells into stem-like cells (Skottman et al. Stem Cell 24:151-167).)\nIn view of the observed involvement of the FGF signaling pathway, it was then examined whether Ca^2+ might be an important secondary messenger responsible for regulating the reprogramming of fibroblast cells induced by SR containing medium activation of the FGF signaling pathway. Thapsigargin, a tight-binding inhibitor for sarco/endoplasmic reticulum Ca^2+ ATPase, was added to the SR-containing medium at a concentration of 1 μg/ml (Durcova-Hills et al. Stem Cell 24:1441)."}, "embryonic bodies": {"system": "embryonic bodies", "assay": "In vitro differentiation of embryoid bodies from SR-iPS cells", "conditions": "2 μM trans-retinoic acid, 10 days, gelatin coated plates", "method": "One of the most important characteristics of stem-like cells is pluripotency. To investigate the SR-iPS stem cells have the multilineage differention potential as embryonic stem cells in vitro, different passage of iPS cells were used to form embryo bodis (EBs) one week's culture without passing in SR medium without Lif. The EBs continues to differentiate on gelatin coated plates and induced by 2 μM trans-retinoic acid for an additional 10 days. Expression of endoderm-, mesoderm-, and ectoderm-specific markers was examined by using antibodies raised against α-fetoprotein, smooth muscle actin, and β-tubulin III, respectively (21). For more specific cell lineage such as cardiomyocyte and smooth muscle cells differentiation, EBs were transferred to collagen-coated plate which contained α-MEM (cardiac differentiation medium) supplemented with 10 ng/ml platelet-derived growth factor-BB (PDGF-BB). Vascular endothelial growth medium supplemented with 50 ng/ml vascular endothelial growth factor (VEGF) was used for the smooth muscle growth differentiation. Two weeks after culturing the EBs in these medium, the cell morphology were examined by Immunofluorescent Staining with Troponin C and smooth muscle actin antibodies."}, "ES-like cells": {"system": "ES-like cells", "assay": "Maintenance of ES-like cells in SR-containing medium with growth factors", "conditions": "bFGF 4 ng/ml and Lif added together to SR-containing medium", "method": "as §1\nTo investigate the possibility that serum replacement (SR)-containing medium can promote the reprogramming and dedifferentiation of skin fibroblast cells into pluripotent stem-like cells, mouse skin fibroblast cells were cultured in fibroblast growth medium, and were then transferred by trypsinization to plates holding SR-containing medium. […]"}, "Ca^2+ influx": {"system": "Ca^2+ influx", "assay": "Ca2+ signalling in fibroblast cells after transfer into SR-containing medium", "conditions": "after transfer of fibroblast cells", "source_text": "as §2"}, "Oct4 promoter": {"system": "Oct4 promoter", "assay": "Methylation status of the Oct4 promoter in fibroblast cells", "conditions": "before and after contact with SR medium"}}, "data": [{"compound": "C/C=C(/C)C(=O)O[C@H]1C(C)=C2[C@H]([C@@H]1OC(=O)CCCCCCC)[C@@](C)(OC(C)=O)C[C@H](OC(=O)CCC)[C@@]1(O)[C@H]2OC(=O)[C@@]1(C)O", "note": "[Thapsigargin, reference compound]", "values": [{"measurement": "conversion of skin fibroblast cells into stem cell-like cells", "setting": "skin fibroblast cells", "result": "prevented conversion of the fibroblast cells into stem-like cells"}, {"measurement": "conversion of skin fibroblast cells into stem cell-like cells", "setting": "skin fibroblast cells; listed as thapsigargin", "result": "prevented"}, {"measurement": "FGFR3 expression", "setting": "[1]", "result": "down-regulated FGF receptor 3 (FGFR3) expression"}, {"measurement": "FGFR3 expression", "setting": "[1]; listed as thapsigargin", "result": "prevented"}]}, {"compound": "CCCCC/C=C\\C/C=C\\C/C=C\\C/C=C\\CCCC(=O)O", "note": "[acarchodonic acid]", "values": [{"measurement": "reprogramming / dedifferentiation of skin fibroblast cells into stem cell-like cells", "setting": "skin fibroblast cells", "result": "required to create stem-like cells"}]}, {"compound": "CC1=C(/C=C/C(C)=C/C=C/C(C)=C/C(=O)O)C(C)(C)CCC1", "note": "[retinonic acid, trans-retinoic acid]", "values": [{"measurement": "differentiation into three germ layers (AFP, SM-Actin, β-tubulin III staining)", "setting": "embryonic bodies", "result": "differentiation of the embryonic bodies into three germ layers"}]}, {"compound": "bFGF: basic fibroblast growth factor (R&D System Cat# 233-FB)", "values": [{"measurement": "division and differentiation of ES-like cells", "setting": "ES-like cells", "result": "promote division of the ES-like cells, while preventing differentiation of these cells"}]}, {"compound": "lipid-rich BSA: AlbuMAX I is the high-lipid BSA (Invitrogen)", "values": [{"measurement": "reprogramming / dedifferentiation of skin fibroblast cells into stem cell-like cells", "setting": "skin fibroblast cells", "result": "promoted the dedifferentiation of skin fibroblast cells into stem cell-like cells"}, {"measurement": "reprogramming / dedifferentiation of skin fibroblast cells into stem cell-like cells", "setting": "skin fibroblast cells; listed as high-lipid BSA", "result": "required to create stem-like cells"}, {"measurement": "FGFR3 expression after transfer into medium", "setting": "[1]; 2, 4, 8, 12 hours after transfer", "result": "induced"}, {"measurement": "Ca^2+ influx / signalling", "setting": "Ca^2+ influx", "result": "induced"}, {"measurement": "methylation status of the Oct4 promoter", "setting": "Oct4 promoter", "result": "induced"}]}]}
